Laboratory results published in PubChem BioAssay AID488890 (Southern Research Specialized Biocontainment Screening …, 2010).
Inconclusive results are not listed. Calls of active or inactive are those of the source. The rule behind the calls is not given here.

System: Mycobacterium tuberculosis non-replicating, growth inhibition
Assay: growth inhibition of non-replicating M. tuberculosis (AID 488890)

| Structure (SMILES) | IC50 |
| --- | --- |
| COc1ccc(C(C#N)=C2C=CC(=NO)C=C2)cc1 | 16 µM (inactive) |
| CCOC(=O)C1CCN(CCCSc2ccc(Cl)cc2)CC1 | 46.4 µM (inactive) |
| Cn1c(=O)c(Oc2ccc(Cl)cc2)c(O)c2ccccc21 | 11.1 µM (inactive) |
| CN1CCN(/N=C/c2ccc(-c3ccc([N+](=O)[O-])cc3Cl)o2)CC1 | 26.9 µM (inactive) |
| Nc1ccc2c(c1)C(=O)C(=O)c1ccccc1-2 | 2.47 µM |
| CCOc1ccc(N2CC(=O)Nc3ccccc3NCC2=O)cc1 | 3.98 µM |
| CCOC(=O)C(C)Oc1ccc(OCc2ccccc2)cc1 (stereo not drawn) | 2.24 µM |
| COc1cc(CNCCNC(=O)c2nonc2N)ccc1OCc1ccc(Cl)cc1 | 12.2 µM (inactive) |
| COc1ccc(N/N=C/c2c(C(=O)O)ccc3ccccc23)cc1 | < 0.1 µM |
| O=C1CC(N2CCC(C(=O)N3CCCCC3)CC2)C(=O)N1 (stereo not drawn) | 12.3 µM (inactive) |
| CCOc1cc(CNCCO)cc(Br)c1OCc1ccccc1Cl | 6.17 µM |
| CCOc1ccc(-c2cc(CCCC(=O)NCCC(C)C)no2)cc1 | 18.2 µM (inactive) |
| CCNc1nc(NC(C)(C)C)nc(N2CCCCC2)n1 | 9.76 µM |
| COc1cccc(N2C(=O)NC(=O)/C(=C/c3ccc([N+](=O)[O-])s3)C2=O)c1 | 17.1 µM (inactive) |
| CCOc1ccc(OCC(=O)Nc2nccs2)cc1 | 7.75 µM |
| COCCSc1nnc(NC(=O)CCS(=O)(=O)Cc2ccccc2)s1 | 5.14 µM |
| CN1CCN(c2c(F)cc3c(=O)c(C(=O)O)cn4c3c2SCC4)CC1 | 16.8 µM (inactive) |
| O=C(CCC(=O)Nc1ccc(Cl)cc1Cl)N/N=C/c1ccc([N+](=O)[O-])o1 | 2.18 µM |
| Cc1ccnc(NC(=O)CCc2c[nH]c3ccccc23)c1 | 5.51 µM |
| Cc1ccc(SCCC(=O)OCC(=O)NCC2CCCCC2)cc1 | 16.6 µM (inactive) |
| O=C(Cc1cccs1)N/N=C\c1ccc([N+](=O)[O-])s1 | 11.6 µM (inactive) |
| CSCCOC(=O)COc1ccc(/C=N/NC(=O)c2c(Cl)cnn2C)cc1 | 8.85 µM |
| O=C(N/N=C/c1cccc2cccnc12)c1ccccc1O | 3.16 µM |

| Structure (SMILES) | IC50 |
| --- | --- |
| CC1CCN(CCOCCSc2ccc(Cl)cc2)CC1 | 19.7 µM (inactive) |
| CN(CCOCCOc1ccc(F)cc1)Cc1ccccc1 | 10.9 µM (inactive) |
| Cc1ccc(C(=O)O/N=C(\N)c2cccc([N+](=O)[O-])c2)cc1 | 7 µM |
| Cc1cc(C)cc(NC(=O)COC(=O)CC2CCCC2)c1 | 21.5 µM (inactive) |
| C/C(=N\NC(=O)c1ccccc1O)C1C(=O)c2ccccc2C1=O | 0.64 µM |
| CC(=O)N1N=C(c2ccccc2)OC1c1ccc([N+](=O)[O-])s1 (stereo not drawn) | 13.4 µM (inactive) |
| Cc1ccccc1C(=O)NNc1ccc([N+](=O)[O-])cc1 | 20.4 µM (inactive) |
| N#CC(C#N)=c1ccc2c(c1)NC1(CCCCC1)N=2 | 5.71 µM |
| O=C(OCC(=O)N1CCC(c2ccccc2)=N1)c1ccc([N+](=O)[O-])s1 | 0.61 µM |
| O=[N+]([O-])c1ncccc1Oc1nc(-c2cccnc2)nc2ccccc12 | 0.73 µM |
| O=C(N/N=C/c1cc(Br)ccc1O)c1ccccc1Cl | 0.48 µM |
| CC(=O)c1ccc(Sc2nnnn2-c2ccccc2)c([N+](=O)[O-])c1 | 19.4 µM (inactive) |
| O=[N+]([O-])c1ccc(/C=N/NS(=O)(=O)c2ccc(Cl)cc2)o1 | 14.7 µM (inactive) |
| CN(C)CCOc1nc(-c2ccccc2)nc2c1oc1ccccc12 | 14.3 µM (inactive) |
| CCCCCn1c(=O)c(C(=O)Nc2nc(CC(=O)OCC)cs2)c(O)c2ccccc21 | 2.39 µM |
| O=C(Nc1ccc([N+](=O)[O-])cc1)C1COc2ccccc2O1 (stereo not drawn) | 10.2 µM (inactive) |
| CCOc1ccc(OC(=O)c2ccc3c(=O)n4c(nc3c2)CCC4)cc1 | 0.5 µM |
| O=C(O)c1ccccc1-c1ccccc1C(=O)Nc1nc2ccccc2s1 | 6.29 µM |
| N=c1oc2ccccc2cc1C(=O)NC1CCCCCC1 | 7.31 µM |
| O=C(N/N=C/c1ccccc1O)c1cccc(C(F)(F)F)c1 | < 0.1 µM |
| CN(C)CCNc1c2c(c(C#N)c3nc4ccccc4n13)CCCC2 | 14.5 µM (inactive) |
| CC(C)(C)C(=O)/C=C/Nc1ccccc1O | 4.66 µM |
| O=C(NNC(=O)c1cnccn1)c1ccc(Cl)c(Cl)c1 | 3.23 µM |

| Structure (SMILES) | IC50 |
| --- | --- |
| COc1cc(CNCCO)cc(Cl)c1OCc1ccc(Cl)cc1Cl | 6.67 µM |
| Cc1ccccc1OCC(=O)OCC(=O)c1ccc[nH]1 | 21.2 µM (inactive) |
| CC(=O)OCCNc1cc(SCc2ccco2)c2nonc2c1[N+](=O)[O-] | 3.04 µM |
| O=C(Nc1cccc(Cl)c1)C1COc2ccccc2O1 (stereo not drawn) | 7.86 µM |
| COc1cccc(C(=O)OCC(=O)Nc2nnc(-c3ccccc3)o2)c1 | 22.8 µM (inactive) |
| COc1cccc(NC(=O)c2ccc(-c3ccc([N+](=O)[O-])cc3)o2)c1 | 1.2 µM |
| COc1ccc(C(=O)Oc2cccc3cccnc23)cc1S(=O)(=O)N1CCOCC1 | 1.19 µM |
| O=C(NNC(=O)c1ccccn1)c1cccc([N+](=O)[O-])c1 | 11 µM (inactive) |
| Cn1[nH]c(-c2ccccc2)c(/C=N/O)c1=O | 8.99 µM |
| Cc1cc(OCc2cc(C(=O)N(C)CCc3cnn(C)c3)no2)cc(C)c1Cl | 30.6 µM (inactive) |
| CCOc1ccc2nc(NC(=O)c3cnc(C)cn3)sc2c1 | 4.32 µM |
| O=C(NCCCN1CCOCC1)c1c(O)c2cc(Br)cc(Br)c2[nH]c1=O | 0.8 µM |
| C/C(=N/Nc1ccnc2cc(Cl)ccc12)c1ccc(N)cc1 | 21.6 µM (inactive) |
| COc1cc(/C=C2/C(=O)NN(c3ccc(Cl)cc3)C2=O)ccc1OC(=O)c1ccco1 | 5.12 µM |
| CC(C)(C)Sc1ccc2nc3c(n2c1)CCCC3 | 9.32 µM |
| Cc1noc(C)c1COc1ccc(C(=O)Nc2ccccn2)cc1 | 24.6 µM (inactive) |
| O=C(CCS(=O)(=O)c1ccccc1)Nc1nnc(-c2ccco2)o1 | 7.69 µM |
| O=c1c2cc(Cl)ccc2nc(-c2ccccc2Cl)n1O | 15.5 µM (inactive) |
| CCOC(=O)Cn1c2ccc(F)cc2c2nc(C)sc21 | 13.8 µM (inactive) |
| O=C(NNc1c(F)c(F)cc(F)c1F)c1cc2ccccc2oc1=O | 27.5 µM (inactive) |
| CN(CCS(=O)(=O)c1ccc(Cl)cc1)Cc1cccnc1 | 13.2 µM (inactive) |
| CCCCn1nnc(NC(=O)COc2ccc(Cl)c(C)c2)n1 | 7.56 µM |
| COC(=O)c1ccc(N2CCN(CCNC(=O)Nc3ccc(OC)cc3)CC2)cc1 | 6.13 µM |

| Structure (SMILES) | IC50 |
| --- | --- |
| O=[N+]([O-])c1ccc(CNc2cccc(Cl)c2)s1 | 43.7 µM (inactive) |
| O=C(C#Cc1ccccc1)c1ccco1 | 0.43 µM |
| CCCNC(=O)NC(=O)COc1ccc2oc3ccccc3c2c1 | 5.09 µM |
| Cc1ccc(CC(=O)N2CCN(c3ccc([N+](=O)[O-])cc3)CC2)cc1 | 16 µM (inactive) |
| COc1ccc(OCC(=O)NNC(=O)c2ccccn2)cc1 | 11.3 µM (inactive) |
| CC(C)c1ccc(OCC(=O)NC2=NCCS2)cc1 | 22.2 µM (inactive) |
| CN1c2ccsc2/C(=N/Nc2ccccc2)CS1(=O)=O | 0.29 µM |
| N[C@@H](Cc1ccccc1)c1nnc(SC/C=C/c2ccccc2)o1 | 3.49 µM |
| COC(=O)c1ccc(C(=O)NC2CC(C)(C)Cc3c2cnn3-c2ccc(F)cc2)nc1 (stereo not drawn) | 15.7 µM (inactive) |
| CN(C)CC/C=C1\c2cc(Cl)ccc2Sc2cc(F)c(F)cc21 | 20.2 µM (inactive) |
| O=C(CCC1CCCC1)NCc1ccccn1 | 3.4 µM |
| O=S1(=O)N=C(N/N=C/C=C/c2ccccc2)c2ccccc21 | 8.69 µM |
| COc1ccccc1NC(=O)c1cnc(SC)nc1 | 22.3 µM (inactive) |
| O=C(N/N=C/c1ccc(Br)s1)c1cccnc1 | 9.43 µM |
| NC(N)=Nc1nc(-c2ccccc2)c2ccccc2n1 | 12.8 µM (inactive) |
| Cc1ccc(/C=N/NC(=O)c2ccncc2)o1 | 2.07 µM |
| CCCc1cc(C(=O)Nc2ccccc2SC)no1 | 12.1 µM (inactive) |
| O=C(c1cc2ccccc2o1)N1CCN(Cc2ccccc2)CC1 | 7.64 µM |
| O=C(N/N=C/c1ccc[nH]1)c1cccnc1 | 26.7 µM (inactive) |
| O=C(Nc1c(F)cc(F)cc1Br)c1cc(-c2ccccc2)on1 | 6.29 µM |
| COCCCNC(=O)COC(=O)c1ccc(-c2nc3ccccc3s2)s1 | 5.37 µM |
| N#CC1=C(N)Oc2n[nH]c(-c3cccnc3)c2C1c1ccc([N+](=O)[O-])o1 (stereo not drawn) | 5.62 µM |
| CCCCCOc1ccc(CSC2=NCCN2)cc1[N+](=O)[O-] | 23.4 µM (inactive) |

| Structure (SMILES) | IC50 |
| --- | --- |
| COc1ccc(C(=O)NNC(=S)NC(=O)c2cccc([N+](=O)[O-])c2)cc1 | 11.8 µM (inactive) |
| O=C1/C(=C\c2ccco2)SC(=S)N1c1ccc(O)cc1 | 33.3 µM (inactive) |
| COc1ccc(C(=O)C=CNNC(=O)c2ccc(Cl)cc2)cc1 | 0.48 µM |
| Cc1ccc(C(=O)NNC(=S)NC(=O)c2ccc(Cl)cc2)cc1 | 4.01 µM |
| Cc1cccc(OCC(O)Cn2c(=N)n(Cc3ccccc3)c3ccccc32)c1 (stereo not drawn) | 20.4 µM (inactive) |
| CC(=O)Oc1ccc(N2C(=O)c3cccc4c([N+](=O)[O-])ccc(c34)C2=O)cc1 | 0.37 µM |
| Clc1ccc(SCCCCn2ccnc2)cc1 | 4.89 µM |
| O=C(N/N=C/c1ccc[nH]1)c1ccc2c(c1)OCO2 | 8.98 µM |
| CC(C)c1nnc(NC(=O)c2sc3ccccc3c2Cl)s1 | 9.84 µM |
| O=C(N/N=C/C=C/c1ccccc1)c1ccncc1 | 0.92 µM |
| CCSc1ncc(/C=N/Nc2ccc(Cl)cc2)n1C | 6.58 µM |
| Cc1ccc(C)c(NC(=O)c2cc([N+](=O)[O-])cc([N+](=O)[O-])c2)c1 | 28.3 µM (inactive) |
| Cc1ccc(C(=O)COC(=O)CCc2ccc(S(=O)(=O)N3CCCCC3)cc2)cc1 | 23 µM (inactive) |
| COc1ccc(CCOC(=O)c2ccc(N)c([N+](=O)[O-])c2)cc1 | 12.3 µM (inactive) |
| CCc1nnc(NC(=O)CN2CCN(Cc3ccc(F)cc3)CC2)s1 | 47 µM (inactive) |
| O=C(CCN1CCN(C/C=C/c2ccccc2)CC1)Nc1ccc(Cl)cc1 | 18.8 µM (inactive) |
| CCCn1c(=O)c(C(=O)N/N=C/c2ccccc2F)c(O)c2ccccc21 | 13.3 µM (inactive) |
| CN1C/C(=C/c2cccnc2)C(=O)/C(=C/c2cccnc2)C1 | 23.5 µM (inactive) |
| CC(C)c1cc(C(=O)N/N=C/C=C/c2ccccc2)n[nH]1 | 27 µM (inactive) |
| O=C1NC(=O)C(=Cc2ccc(Oc3ccc([N+](=O)[O-])cc3)cc2)C(=O)N1 | 16.5 µM (inactive) |
| Cc1ccc(C(=O)Oc2cccc(-n3cnnn3)c2)cc1 | 25.3 µM (inactive) |
